Active and inactive are the calls of the source. The rule behind the calls is not given here. Peptide text beside a SMILES is read from it.

Assay [1] deals with PC-12. Put plainly: Protection against beta amyloid 42-induced neurotoxicity in rat PC12 cells by MTT reduction assay. The format is functional, cell-based. On the technique in general: Tetrazolium dyes change colour on reduction, which living cells bring about.
Assay [2] deals with Amyloid-beta precursor protein (Homo sapiens) (UniProt P05067). The assay can be described thus: Binding affinity to beta amyloid 42 by ELISA.
Amyloid-beta precursor protein (Homo sapiens), sequence (P05067 whole entry): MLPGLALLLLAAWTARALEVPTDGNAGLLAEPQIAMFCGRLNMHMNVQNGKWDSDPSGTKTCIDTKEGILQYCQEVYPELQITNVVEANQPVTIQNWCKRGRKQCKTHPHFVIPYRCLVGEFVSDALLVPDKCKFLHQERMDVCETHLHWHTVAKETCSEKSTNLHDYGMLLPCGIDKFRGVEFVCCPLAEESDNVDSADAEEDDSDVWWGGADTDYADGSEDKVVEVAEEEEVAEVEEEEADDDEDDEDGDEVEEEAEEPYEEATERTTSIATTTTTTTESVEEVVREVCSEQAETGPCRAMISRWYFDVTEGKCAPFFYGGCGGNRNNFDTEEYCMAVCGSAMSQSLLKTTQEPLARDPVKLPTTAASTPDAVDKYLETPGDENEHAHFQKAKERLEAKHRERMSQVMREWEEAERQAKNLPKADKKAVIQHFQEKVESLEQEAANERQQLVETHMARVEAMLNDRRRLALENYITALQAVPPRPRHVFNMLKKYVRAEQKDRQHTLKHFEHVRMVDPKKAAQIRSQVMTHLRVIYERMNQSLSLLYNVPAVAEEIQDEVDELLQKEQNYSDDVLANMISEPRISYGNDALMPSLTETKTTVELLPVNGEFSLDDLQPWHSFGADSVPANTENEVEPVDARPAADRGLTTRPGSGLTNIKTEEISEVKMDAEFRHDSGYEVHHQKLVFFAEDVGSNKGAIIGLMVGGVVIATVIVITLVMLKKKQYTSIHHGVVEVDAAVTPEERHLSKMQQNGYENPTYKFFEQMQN
The target is the same in assay [3]. The assay can be described thus: Inhibition of self-aggregation of beta amyloid 42 by thioflavin T assay. It counts as functional.
Assay [4] concerns PC-12. Put plainly: Neutralizing activity against beta amyloid 42-induced cytotoxicity in rat PC12 cells at 100 uM by MTT reduction assay. It counts as functional, cell-based.
Assay [5] has as its target Amyloid-beta precursor protein (Homo sapiens) (UniProt P05067). The assay can be described thus: Binding affinity to beta amyloid 42 at 10 uM to 100 uM by ELISA. In general terms: An ELISA detects its analyte on a solid surface through an enzyme-linked reagent.

For the molecule `CC(C)[C@H](NC(=O)[C@H](Cc1ccccc1)NC(=O)[C@@H](N)[C@H](C)O)C(=O)N[C@@H](CCCN=C(N)N)C(=O)N[C@H](C(=O)O)[C@H](C)O`, in the assay on PC-12 [1], the outcome was inactive. As for `CC(C)[C@H](NC(=O)[C@H](Cc1ccccc1)NC(=O)[C@@H](NC(=O)[C@@H](N)CS)[C@H](C)O)C(=O)N[C@@H](CCCN=C(N)N)C(=O)O`, the outcome in assay [2] was Active. Besides, the outcome in the assay with PC-12 [1] was inactive. Consider `CC[C@H](C)[C@H](NC(=O)[C@H](Cc1c[nH]cn1)NC(=O)[C@@H](NC(=O)[C@H](CCCN=C(N)N)NC(=O)[C@@H](NC(=O)[C@H](Cc1ccccc1)NC(=O)[C@@H](NC(=O)[C@@H](N)CS)[C@@H](C)O)C(C)C)[C@@H](C)O)C(=O)N[C@@H](Cc1ccccc1)C(=O)N[C@@H](CS)C(=O)N[C@@H](CCCCN)C(=O)N[C@@H](CCC(=O)O)C(=O)N[C@@H](Cc1c[nH]cn1)C(=O)N[C@@H](CCC(N)=O)C(=O)N[C@@H](Cc1ccccc1)C(=O)O` (H-CTFVRTHIFCKEHQF-OH), for which the Activity result (in assay [3]; in the assay with PC-12 [1]) was “Dose-dependent effect” throughout. Further, the result in assay [2] was Active. H-CKEHQ-OH: the outcome in the assay with PC-12 [1] was inactive. Still for that read-out and setting: the same measure for H-FCKEH-OH: “inactive”. With H-FNHKKRLLHPSLFPR-OH, the outcome in assay [3] and in assay [2] was inactive.

Regarding H-FVRTH-OH, in the assay on PC-12 [1], the outcome was inactive.

As to H-HESNDCTFV-OH, the outcome in assay [2] was inactive. Turning to H-HESNDCTFVRT-OH, the result with PC-12 [4] was inactive. Also, the outcome in assay [5] was Active. H-HIFCK-OH: in the assay on PC-12 [1], the outcome was inactive. Same read-out and setting: the same measure for H-IFCKE-OH: “inactive”. Turning to H-KEHQF-OH, the outcome (in assay [3]; in the assay with PC-12 [1]) was inactive. For the molecule H-THIFC-OH, the outcome with PC-12 [1] was inactive. Same read-out and setting: the same measure for H-VRTHI-OH: “inactive”.

Values taken from ChEMBL document CHEMBL1145340, “Potential lead for an Alzheimer drug: a peptide that blocks intermolecular interaction and amyloid beta protein-induced cytotoxicity” (J Med Chem, 2006).
